For this assay, the system named is L1210 leukemia ip in BDF1 mice, survival T/C. The assay is described as follows: NCI In Vivo Anticancer Drug Screen. Data for tumor model L1210 Leukemia (intraperitoneal) in B6D2F1 (BDF1) mice. The settings on record: endpoint: mean survival time, higher = longer survival. The method, boiled down:
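Antitumor effect is assessed in tumor-bearing animals. Survival in the compound arm is compared with a vehicle-dosed control arm and expressed as their quotient.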

Setting [1] is: dose: 100.0 mg/kg/injection, schedule: Q01DX009 (ip), vehicle: Klucel (hydroxypropylcellulose) (HPC).
Setting [2] is: dose: 100.0 mg/kg/injection, schedule: Q04DX003 (ip), vehicle: Klucel (hydroxypropylcellulose) (HPC).
Where [3] appears, read: dose: 200.0 mg/kg/injection, schedule: Q01DX009 (ip), vehicle: Klucel (hydroxypropylcellulose) (HPC).
Setting [4] is: dose: 200.0 mg/kg/injection, schedule: Q04DX003 (ip), vehicle: Klucel (hydroxypropylcellulose) (HPC).
Where [5] appears, read: dose: 400.0 mg/kg/injection, schedule: Q01DX009 (ip), vehicle: Klucel (hydroxypropylcellulose) (HPC).
[6] abbreviates: dose: 400.0 mg/kg/injection, schedule: Q04DX003 (ip), vehicle: Klucel (hydroxypropylcellulose) (HPC).
Where [7] appears, read: dose: 100.0 mg/kg/injection, schedule: Q01DX001 (ip), vehicle: saline.
[8] abbreviates: dose: 200.0 mg/kg/injection, schedule: Q01DX001 (ip), vehicle: saline.
[9] abbreviates: dose: 400.0 mg/kg/injection, schedule: Q01DX001 (ip), vehicle: saline.
Where [10] appears, read: dose: 100.0 mg/kg/injection, schedule: Q01DX001 (ip), vehicle: carboxymethylcellulose (CMC).
Where [11] appears, read: dose: 200.0 mg/kg/injection, schedule: Q01DX001 (ip), vehicle: carboxymethylcellulose (CMC).
[12] abbreviates: dose: 400.0 mg/kg/injection, schedule: Q01DX001 (ip), vehicle: carboxymethylcellulose (CMC).
The mark [13] stands for this setting: dose: 100.0 mg/kg/injection, schedule: Q04DX002 (ip), vehicle: Klucel (hydroxypropylcellulose) (HPC).
The mark [14] stands for this setting: dose: 200.0 mg/kg/injection, schedule: Q04DX002 (ip), vehicle: Klucel (hydroxypropylcellulose) (HPC).
Where [15] appears, read: dose: 400.0 mg/kg/injection, schedule: Q04DX002 (ip), vehicle: Klucel (hydroxypropylcellulose) (HPC).
The mark [16] stands for this setting: dose: 75.0 mg/kg/injection, schedule: Q01DX001 (ip), vehicle: saline.
Setting [17] is: dose: 150.0 mg/kg/injection, schedule: Q01DX001 (ip), vehicle: saline.
[18] abbreviates: dose: 300.0 mg/kg/injection, schedule: Q01DX001 (ip), vehicle: saline.

Several values for one entry are separate records, joined by “and”; a condition that tells them apart may be missing. Equal values may be shown once. Toxic doses and inconclusive results are not listed.

For `CCOC(=O)NNC(=O)c1ccccc1N(C)C`, the T/C under setting [1] was 94 % of control; the T/C under setting [2] is 101 % of control; the T/C under setting [3] is 91 % of control; the T/C under setting [4] was 101 % of control; the T/C under setting [5] was 97 % of control; the T/C under setting [6] was 95 % of control.
For `Clc1cc2nc3[nH]c4ccccc4c3nc2cc1Cl`, under setting [7], the T/C is 97 % of control.
As to `COc1ccc(C(=O)C2=CC(=O)C(=O)C2)cc1OC`, the T/C under setting [7] was 98 % of control, the T/C under setting [8] was 98 % of control and the T/C under setting [9] was 94 % of control.
As for `c1ccc(-c2nn(-c3ccccc3)[n+](-c3cccc4ccccc34)n2)cc1`, the T/C (dose: 1.0 mg/kg/injection, schedule: Q01DX015 (ip), vehicle: carboxymethylcellulose (CMC)) was 100 % of control; the T/C (dose: 2.0 mg/kg/injection, schedule: Q01DX015 (ip), vehicle: carboxymethylcellulose (CMC)) is 102 % of control; the T/C (dose: 4.0 mg/kg/injection, schedule: Q01DX015 (ip), vehicle: carboxymethylcellulose (CMC)) is 102 % of control; the T/C (dose: 8.0 mg/kg/injection, schedule: Q01DX015 (ip), vehicle: carboxymethylcellulose (CMC)) is 105 % of control.
`c1ccc(Oc2nnc3c4ccccc4ccn23)cc1`: the T/C is, setting by setting: under setting [10], 98 % of control; under setting [11], 98 % of control; under setting [12], 98 % of control.
On to `NC(=O)c1c(Cl)cccc1Cl`, for which the T/C by setting is: under setting [2], 111 % of control; under setting [4], 101 % of control; under setting [6], 101 % of control.
On to `CCCCCCCCCCCCCCS(=O)(=O)CCCl`, for which the T/C is 98 % of control (dose: 100.0 mg/kg/injection, schedule: Q04DX003 (ip), vehicle: carboxymethylcellulose (CMC)); 94 % of control (dose: 200.0 mg/kg/injection, schedule: Q04DX003 (ip), vehicle: carboxymethylcellulose (CMC)); 94 % of control (dose: 400.0 mg/kg/injection, schedule: Q04DX003 (ip), vehicle: carboxymethylcellulose (CMC)).
As to `Fc1cccc2c1[nH]c1cc3ccncc3cc12`, the T/C under setting [2] was 98 % of control, the T/C under setting [4] was 90 % of control and the T/C under setting [6] was 93 % of control.
Turning to `COc1ccc(/C=N/NC(=O)c2ccc(N)cc2)cc1`, the T/C by setting is: under setting [13], 106 % of control; under setting [14], 100 % of control; under setting [15], 95 % of control.
With `O=C(O)C(Cl)Cl`, the T/C by setting is: (dose: 100.0 mg/kg/injection, schedule: Q04DX003 (ip), vehicle: saline) 98 % of control; (dose: 200.0 mg/kg/injection, schedule: Q04DX003 (ip), vehicle: saline) 93 % of control.
For `C=C(C)C1(C)C(=O)NC(=S)NC1=O`, the T/C under setting [16] is 108 % of control, the T/C under setting [17] is 100 % of control and the T/C under setting [18] was 107 % of control.
With `CCc1ccccc1NC(=O)Nc1ccc(CCO)cc1`, the T/C under setting [1] was 98 % of control, the T/C under setting [3] is 105 % of control and the T/C under setting [5] is 96 % of control.
Turning to `O=C(O)c1ccccc1N=Cc1ccc(N(CCCl)CCCl)cc1`, the T/C (dose: 50.0 mg/kg/injection, schedule: Q01DX001 (ip), vehicle: carboxymethylcellulose (CMC)) is 103 % of control; the T/C under setting [10] is 122 % of control; the T/C under setting [11] is 114 % of control; the T/C under setting [12] is 111 % of control.
Regarding `Nc1ccccc1SC(CC(=O)c1ccccc1)c1c(Cl)cccc1Cl` (stereo not drawn), the T/C reads like this: (dose: 100.0 mg/kg/injection, schedule: Q01DX005 (ip), vehicle: Klucel (hydroxypropylcellulose) (HPC)) 94 % of control; under setting [13], 110 % of control; (dose: 200.0 mg/kg/injection, schedule: Q01DX005 (ip), vehicle: Klucel (hydroxypropylcellulose) (HPC)) 108 % of control; under setting [14], 95 % of control; (dose: 400.0 mg/kg/injection, schedule: Q01DX005 (ip), vehicle: Klucel (hydroxypropylcellulose) (HPC)) 94 % of control; under setting [15], 95 % of control.
On to `CCCCCCCCSCCC(=O)O`, for which the T/C by setting is: (dose: 100.0 mg/kg/injection, schedule: Q01DX009 (ip), vehicle: saline with Tween-80) 97 % of control; (dose: 100.0 mg/kg/injection, schedule: Q04DX003 (ip), vehicle: saline with Tween-80) 97 % of control; (dose: 200.0 mg/kg/injection, schedule: Q01DX009 (ip), vehicle: saline with Tween-80) 88 % of control; (dose: 200.0 mg/kg/injection, schedule: Q04DX003 (ip), vehicle: saline with Tween-80) 92 % of control; (dose: 400.0 mg/kg/injection, schedule: Q04DX003 (ip), vehicle: saline with Tween-80) 94 % of control.
Turning to `Oc1ccc(CCNCc2ccc3c(c2)OCO3)cc1`, the T/C by setting is: (dose: 100.0 mg/kg/injection, schedule: Q01DX001 (ip), vehicle: Klucel (hydroxypropylcellulose) (HPC)) 88 % of control; (dose: 200.0 mg/kg/injection, schedule: Q01DX001 (ip), vehicle: Klucel (hydroxypropylcellulose) (HPC)) 88 % of control; (dose: 400.0 mg/kg/injection, schedule: Q01DX001 (ip), vehicle: Klucel (hydroxypropylcellulose) (HPC)) 88 % of control.
`Cc1c2ccc3ccccc3c2c[n+]2ccccc12`: the T/C reads like this: (dose: 5.0 mg/kg/injection, schedule: Q01DX009 (ip), vehicle: saline sonified) 102 % of control; (dose: 7.0 mg/kg/injection, schedule: Q01DX009 (ip), vehicle: saline sonified) 116 % of control and 120 % of control; (dose: 10.7 mg/kg/injection, schedule: Q01DX009 (ip), vehicle: saline sonified) 117 % of control; (dose: 11.0 mg/kg/injection, schedule: Q01DX009 (ip), vehicle: saline sonified) 120 % of control; (dose: 15.0 mg/kg/injection, schedule: Q04DX003 (ip), vehicle: Klucel (hydroxypropylcellulose) (HPC)) 108 % of control; (dose: 21.0 mg/kg/injection, schedule: Q04DX003 (ip), vehicle: Klucel (hydroxypropylcellulose) (HPC)) 107 % of control. The T/C is, setting by setting: (dose: 24.0 mg/kg/injection, schedule: Q01DX009 (ip), vehicle: saline sonified) 114 % of control; (dose: 33.0 mg/kg/injection, schedule: Q04DX003 (ip), vehicle: Klucel (hydroxypropylcellulose) (HPC)) 105 % of control; (dose: 48.0 mg/kg/injection, schedule: Q04DX003 (ip), vehicle: Klucel (hydroxypropylcellulose) (HPC)) 111 % of control.
For the compound `O=C1C2CC(CN3CCCCC23)C2CCCCN12` (stereo not drawn), the T/C is 94 % of control under setting [16], 103 % of control under setting [17] and 101 % of control under setting [18].
As to `CN(CCO)/N=N/c1nc[nH]c1C(N)=O`, the T/C is, setting by setting: under setting [10], 107 % of control; under setting [11], 113 % of control; under setting [12], 107 % of control; (dose: 400.0 mg/kg/injection, schedule: Q01DX009 (ip), vehicle: carboxymethylcellulose (CMC)) 169 % of control; (dose: 800.0 mg/kg/injection, schedule: Q01DX009 (ip), vehicle: carboxymethylcellulose (CMC)) 92 % of control.
Regarding `Nc1nc2ncc(CNc3cnc(C(=O)NC(CCC(=O)O)C(=O)O)nc3)nc2c(=O)[nH]1` (stereo not drawn), the T/C runs as follows: (dose: 50.0 mg/kg/injection, schedule: Q01DX009 (ip), vehicle: alkali diluted with saline) 107 % of control; (dose: 100.0 mg/kg/injection, schedule: Q01DX001 (ip), vehicle: saline with Tween-80) 103 % of control; (dose: 200.0 mg/kg/injection, schedule: Q01DX001 (ip), vehicle: saline with Tween-80) 112 % of control.
`CCSC1OC(COC(C)=O)C(OC(C)=O)C1NC(C)=O` (stereo not drawn): the T/C (dose: 50.0 mg/kg/injection, schedule: Q01DX001 (ip), vehicle: saline) is 103 % of control; the T/C under setting [7] was 113 % of control; the T/C under setting [8] is 97 % of control; the T/C under setting [9] is 107 % of control.
With `Cc1ccc(C2CCCN2C)cc1` (stereo not drawn), the T/C (dose: 25.0 mg/kg/injection, schedule: Q04DX003 (ip), vehicle: acetone) is 96 % of control; the T/C (dose: 50.0 mg/kg/injection, schedule: Q04DX003 (ip), vehicle: acetone) was 94 % of control; the T/C (dose: 100.0 mg/kg/injection, schedule: Q01DX001 (ip), vehicle: acetone) was 88 % of control; the T/C (dose: 100.0 mg/kg/injection, schedule: Q04DX003 (ip), vehicle: acetone) was 99 % of control.

These data come from PubChem BioAssay AID248 (DTP/NCI, 2004).
